From US11666551B2, “Agent for reducing amount of amyloid β protein” (FUJIFILM Toyama Chemical Co., Ltd., priority 2017, dated 2023)

Tests used:
Type in all cases: in vivo, mild to moderate AD patients
[1] = tested on: Aβ-40; assay: Phase II placebo-controlled trial, cerebrospinal fluid biomarker Aβ-40; details: for Change in Aβ-40 in CSF at week 52, difference from placebo group: analysis of covariance
Text: [The procedure below names another target; the source lists this target under the same test.] (§1) Maleate of Compound A was used as the test compound. • Test Example 1 Multicenter randomized double-blind phase II placebo-controlled trial for assessing effectiveness and safety of Compound A in mild to moderate AD patients Subject (selection criteria): Patients were screened in a period from 42 days before treatment assignment to the assignment based on the following selection criteria. • Patients who were probable AD and are 55 years old or older and 85 years old or younger at the time of obtaining consent of screening. • Patients with an MMSE score of 12 to 22 at the time of screening • Patients with a Modified Hachinski Ischemia Scale score of 4 or less • Patients who have been treated with a donepezil hydrochloride or rivastigmine transdermal system for at least 4 months before the baseline and with a stable dose thereof for 3 months before the baseline. • In the case of patients who have received memantine in addition to being treated with a donepezil hydrochloride or rivastigmine transdermal system, patients who have been treated with memantine for at least 4 months before the baseline and with a stable dose thereof for 3 months before the baseline. • Patients whose brain MRI or CT results match AD at the time of screening • Organization of groups: Patients matched (484 patients) were randomly divided into the following 3 groups and the trial was started. • (1) High dose group: 224 mg of a test compound (160 mg in terms of Compound A) was orally administered once a day for 4 weeks and then 448 mg of a test compound (320 mg in terms of Compound A) was orally administered once a day for 48 weeks (158 patients) • (2) Low dose group: 224 mg of a test compound (160 mg in terms of Compound A) was orally administered once a day for 52 weeks (166 patients) • (3) Placebo group: placebo was orally administered once a day for 52 weeks (158 patients) Method of assessment: Cerebrospinal Fluid Biomarker
(§2) Cerebrospinal fluid was collected by lumber puncture from subjects at baseline (within 2 weeks before the first day of administration of investigational drug) and after 52 weeks (within 2 weeks before week 52), and divided into 9-ml aliquots in polyethylene tubes and stored at −80° C. The AP-42 value in the cerebrospinal fluid was measured by sandwich ELIZA which has been designed for measurement of Aβ including 1 amino acid and 42 amino acids.
(§3) Change in cerebrospinal fluid (CSF) biomarkers at week 52 from the baseline was compared by analysis of covariance between a high dose group and a placebo group, and between a low dose group and the placebo group. For models, the baseline of cerebrospinal fluid (CSF) biomarkers was included as a covariate and the significance level was 5%.

[2] = tested on: Aβ; assay: Phase II placebo-controlled trial, concentration of Aβ in the cerebrospinal fluid (overall statement); details: Compound A groups (high and low dose) vs placebo group
Experimental: […]
as §2, with “acids. […]” for “acids.”

[3] = tested on: Aβ-42; assay: Phase II placebo-controlled trial, cerebrospinal fluid biomarker Aβ-42; details: for Change in Aβ-42 in CSF at week 52, difference from placebo group: analysis of covariance
Text: as §1, §2, §3

[4] = tested on: Aβ-38; assay: Phase II placebo-controlled trial, cerebrospinal fluid biomarker Aβ-38; details: for Change in Aβ-38 in CSF at week 52, difference from placebo group: analysis of covariance
Text: [The procedure below names another target; the source lists this target under the same test.] as §1, §2, §3

[5] = High dose group (160 mg then 320 mg in terms of Compound A, oral, once a day)
[6] = High dose group: 160 mg in terms of Compound A orally once a day for 4 weeks, then 320 mg for 48 weeks, 24 cases
[7] = Low dose group (160 mg in terms of Compound A, oral, once a day, 52 weeks)
[8] = Low dose group: 160 mg in terms of Compound A orally once a day for 52 weeks, 17 cases

OC1CN(CCCOCCc2ccc3sccc3c2)C1 [Compound A, 1-(3-(2-(1-benzothiophen-5-yl)ethoxy)propyl)azetidin-3-ol]
Change in Aβ-40 in CSF at week 52, difference from placebo group [1, 5]: 1206.87 pg/mL
Change in concentration of Aβ-40 in CSF at week 52 from the baseline, least square means [1, 6]: 290.84 pg/mL
Change in Aβ-40 in CSF at week 52, difference from placebo group [1, 7]: 75.71 pg/mL
Change in concentration of Aβ-40 in CSF at week 52 from the baseline, least square means [1, 8]: -840.32 pg/mL
Change in the concentration of Aβ in the cerebrospinal fluid at week 52 from the baseline, compared to the placebo group [2]: tended to be increased in a dose dependent manner
Change in Aβ-42 in CSF at week 52, difference from placebo group [3, 5]: 32.90 pg/mL
Change in concentration of Aβ-42 in CSF at week 52 from the baseline, least square means [3, 6]: 11.55 pg/mL
Change in Aβ-42 in CSF at week 52, difference from placebo group [3, 7]: 11.65 pg/mL
Change in concentration of Aβ-42 in CSF at week 52 from the baseline, least square means [3, 8]: -9.70 pg/mL
Change in Aβ-38 in CSF at week 52, difference from placebo group [4, 5]: 525.66 pg/mL
Change in concentration of Aβ-38 in CSF at week 52 from the baseline, least square means [4, 6]: 178.64 pg/mL
Change in Aβ-38 in CSF at week 52, difference from placebo group [4, 7]: 127.43 pg/mL
Change in concentration of Aβ-38 in CSF at week 52 from the baseline, least square means [4, 8]: -219.58 pg/mL
